Laboratory results as given in ChEMBL document CHEMBL1201862, “PubChem BioAssay data set” (2004).
Activity calls are given as the source filed them. Rule as the data show it, for most assays here: actives have a measured AC50 and inactives only a lower limit.

Key:
Type in all cases: functional
[1] = target: T1, Short transient receptor potential channel 4 (Mus musculus, UniProt Q9QUQ5); assay: potentiation of DAMGO-evoked TRPC4 calcium signal – cell-based, HEK293 TRPC4/mu-opioid, Fluo-4 calcium, EC20 DAMGO, dose response (AID 434941)
T1 sequence (Q9QUQ5 whole entry): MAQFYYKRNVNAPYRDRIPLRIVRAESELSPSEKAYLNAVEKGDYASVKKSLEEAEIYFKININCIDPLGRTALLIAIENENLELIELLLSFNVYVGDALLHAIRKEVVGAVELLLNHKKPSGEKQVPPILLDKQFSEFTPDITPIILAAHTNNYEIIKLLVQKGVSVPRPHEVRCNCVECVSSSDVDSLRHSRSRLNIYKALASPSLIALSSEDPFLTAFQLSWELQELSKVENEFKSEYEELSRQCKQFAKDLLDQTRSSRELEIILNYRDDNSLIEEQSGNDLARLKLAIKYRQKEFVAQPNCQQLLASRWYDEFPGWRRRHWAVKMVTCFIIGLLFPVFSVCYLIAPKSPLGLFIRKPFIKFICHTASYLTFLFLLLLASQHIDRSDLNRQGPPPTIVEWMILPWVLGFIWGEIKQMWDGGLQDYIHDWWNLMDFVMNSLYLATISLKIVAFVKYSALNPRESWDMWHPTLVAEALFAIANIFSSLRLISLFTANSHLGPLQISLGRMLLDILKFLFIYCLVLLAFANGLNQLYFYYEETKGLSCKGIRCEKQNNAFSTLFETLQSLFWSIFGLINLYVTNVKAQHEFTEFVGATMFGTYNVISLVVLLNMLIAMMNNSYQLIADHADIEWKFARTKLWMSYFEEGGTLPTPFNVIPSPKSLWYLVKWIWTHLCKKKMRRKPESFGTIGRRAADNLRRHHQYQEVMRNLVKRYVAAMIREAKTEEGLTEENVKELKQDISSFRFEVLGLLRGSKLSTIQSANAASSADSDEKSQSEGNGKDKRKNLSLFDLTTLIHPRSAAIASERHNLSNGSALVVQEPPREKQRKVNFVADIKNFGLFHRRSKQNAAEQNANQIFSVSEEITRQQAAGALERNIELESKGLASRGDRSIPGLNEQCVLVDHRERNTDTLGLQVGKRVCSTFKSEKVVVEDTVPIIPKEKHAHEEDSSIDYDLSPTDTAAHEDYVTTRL

[2] = Luminescence Cell-Based Dose Retest to Confirm Inhibitors of Cancer Stem Cells. [Related pubchem assays (depositor defined):AID2717, AID2721]; conditions: Homo sapiens
[3] = reduction of Shn3 3'UTR-driven luciferase in osteoblasts – cell-based, Clone20 osteoblasts, firefly luciferase, cherry-picked, dose response (AID 624132);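 also: firefly luciferase luminescence from reporter carrying the Shn3 3'UTR in osteoblasts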
[4] = non-specific 3'UTR reporter inhibition in Clone20-Shn3RL – cell-based, Renilla luciferase, cherry-picked, counter-screen for Shn3 inhibitor project, dose response (AID 624133)

O=C(Nc1cccc(Cl)c1)N1CCN(C/C=C/c2ccccc2)CC1
EC50 [1]: 0.12 µM (active)

Cc1ccc(-c2nnc(N3CCC(C)CC3)c3ccccc23)cc1C
AC50 [2]: 4.62 µM (active) | EC50 [1]: 3.35 µM (active) | AC50 [3]: 6.41 µM (active) | AC50 [4]: 8.42 µM (active)
